Assay results taken from PMC4999892 (Scientific Reports, 2016).
Bridges are numbered along the chain shown (N, C = ends). Where no end group is shown, it is not given here.

Columns and labels:
[1] = not given; remark: listed apart in the source
[2] = not given; remark: listed apart in the source
[3] = test system: Xanthomonas oryzae pv.oryzae; conditions: inhibition zone assay; Gram-negative; N.A. = no inhibition zone at 0.8–1.0 nmol peptides each well
[4] = not given; remark: listed apart in the source
[5] = test system: B. megaterium cells; assay: Membrane permeability assay with propidium iodide; format: cell-based, Bacillus megaterium
[6] = test system: Micrococcus luteus CGMCC 1.0290; assay: Inhibition zone assay; format: cell-based; conditions: Gram-positive, N.A. = no inhibition zone at 0.8–1.0 nmol peptides each well
Method: (§1) Antimicrobial activity of peptides was assessed by the inhibition zone assay. Membrane permeability assay was performed according to the method previously reported. Sources of microbial strains used here are listed in Supplementary Table S2.

[7] = test system: Bacillus megaterium CGMCC 1.0459; assay: Inhibition zone assay; format: cell-based; conditions: Gram-positive, N.A. = no inhibition zone at 0.8–1.0 nmol peptides each well
Method: as §1

[8] = test system: Aspergillus fumigatus CEA17, A. nidulans A28 and RCho15, A. niger, Geotrichum candidum, Neurospora crassa; conditions: summary of Table 1; range stated for DtDRS-1 and DRS together
[9] = test system: Geotrichum candidum CCTCC AY 93038; assay: Inhibition zone assay; format: cell-based; conditions: N.A. = no inhibition zone at 0.8–1.0 nmol peptides each well
Method: as §1

[10] = test system: Aspergillus niger; assay: Inhibition zone assay; format: cell-based; conditions: N.A. = no inhibition zone at 0.8–1.0 nmol peptides each well
Method: as §1

[11] = test system: Aspergillus nidulans A28; assay: Inhibition zone assay; format: cell-based; conditions: N.A. = no inhibition zone at 0.8–1.0 nmol peptides each well
Method: as §1

[12] = test system: Aspergillus fumigatus CEA17; assay: Inhibition zone assay; format: cell-based; conditions: mutant (pyrG-), N.A. = no inhibition zone at 0.8–1.0 nmol peptides each well
Method: as §1

[13] = test system: Neurospora crassa CGMCC 3.1605; assay: Inhibition zone assay; format: cell-based; conditions: N.A. = no inhibition zone at 0.8–1.0 nmol peptides each well
Method: as §1

[14] = test system: Aspergillus nidulans RCho15; assay: Inhibition zone assay; format: cell-based; conditions: N.A. = no inhibition zone at 0.8–1.0 nmol peptides each well
Method: as §1

[15] = test system: Bacillus megaterium and Micrococcus luteus; assay: Inhibition zone assay, summary over two Gram-positive bacteria; format: cell-based; conditions: summary of Table 1
[16] = test system: G. candidum and N. crassa; assay: Inhibition zone assay, summary over two fungal species; format: cell-based; conditions: summary of Table 1
[17] = peptides at 5× CL, milder than positive control meucin-18

“DFKSGKFKGGCMAWSGEKCRRLCKEQGAVSGHCSSNFKCWCEM (disulfide 11-33, 19-39, 23-41 (inferred)) [DtDRS-11]” showed an Unordered content of 48%, a α-Helix content [1] of 21% and a Turns content [2] of 15%. For the same compound, the “CL (lethal concentration)” value [3] was 8.84 µM, the β-Sheet content [4] was 16% and the “Effect on membrane integrity (propidium iodide fluorescence)” value (from here on “Effect on membrane integrity”) [5, 17] was “immediate fluorescence increase”. The “CL (lethal concentration)” value [6] was 3.06 µM and the “CL (lethal concentration)” value [7] was 4.41 µM.
For “DCLSGRYKGPCAVWDNETCRRVCKEEGRSSGHCSPSLKCWCEGC (disulfide 2-44, 11-33, 19-39, 23-41) [DRS, Drosomycin, reference compound]”, the “Lethal concentrations (CL), range over sensitive fungi” value [8] was 0.1 to 2.6 µM, the “CL (lethal concentration)” value [9] was 1.89 µM and the “CL (lethal concentration)” value [10] was 1.32 µM. For the same compound, the “CL (lethal concentration)” value [11] was 0.45 µM, the “CL (lethal concentration)” value [12] was 0.30 µM and the “CL (lethal concentration)” value [13] was 0.1 µM. The “CL (lethal concentration)” value [14] was 1.73 µM.
For `CN[C@H](CC(C)C)C(=O)N[C@H]1C(=O)N[C@@H](CC(N)=O)C(=O)N[C@H]2C(=O)N[C@H]3C(=O)N[C@H](C(=O)N[C@H](C(=O)O)c4cc(O)cc(O)c4-c4cc3ccc4O)[C@H](O)c3ccc(c(Cl)c3)Oc3cc2cc(c3O[C@@H]2O[C@H](CO)[C@@H](O)[C@H](O)[C@H]2O[C@H]2C[C@](C)(N)[C@H](O)[C@H](C)O2)Oc2ccc(cc2Cl)[C@H]1O` [vancomycin, reference compound], the “Effect on membrane integrity” value ([5]; vancomycin at 10× CL, negative control) was “no fluorescence increase”.
In the case of “DFLSGKFKGGCMMWSGEKCRRLCKEQGAVSGHCSTNFKCWCEE (disulfide 11-33, 19-39, 23-41 (inferred)) [DtDRS-11d]”, the Unordered content is reported as 53%, the “CL, range over two Gram-positive bacteria” value [15] is reported as 0.98 to 1.08 µM and the α-Helix content [1] is reported as 18%. The Turns content [2] was 15%, the β-Sheet content [4] was 16% and the “Effect on membrane integrity” value [5, 17] was “immediate fluorescence increase”. The “CL (lethal concentration)” value [6] was 1.08 µM and the “CL (lethal concentration)” value [7] was 0.98 µM.
With “DCLSGRYKGPCAVWDNETCRRVCKEEGRVSGHCSPSLKCWCEGC (disulfide 2-44, 11-33, 19-39, 23-41) [DtDRS-1]” the “Lethal concentrations (CL), range over sensitive fungi” value [8] was 0.1 to 2.6 µM, the “CL (lethal concentration)” value [9] was 2.50 µM and the “CL (lethal concentration)” value [10] was 2.63 µM. For the same compound, the “CL (lethal concentration)” value [11] was 1.25 µM, the “CL (lethal concentration)” value [12] was 0.33 µM and the “CL (lethal concentration)” value [13] was 0.3 µM. The “CL (lethal concentration)” value [14] was 2.03 µM.
In the case of “RDFLSGTFGGPCWAWSGEKCRRLCIEEGHVSGHCSGAMKCWCEG (disulfide 12-34, 20-40, 24-42 (inferred)) [DRS-3-WDB]”, the Unordered content is reported as 41%, the α-Helix content [1] is reported as 19% and the “CL, range over two fungal species” value [16] is reported as 3.72 to 4.89 µM. For the same compound, the Turns content [2] was 18%, the β-Sheet content [4] was 22% and the “CL (lethal concentration)” value [9] was 4.89 µM. The “CL (lethal concentration)” value [13] was 3.72 µM.
